Here are results for three compounds from US20010033888A1, “Crystalline trehalose dihydrate, its preparation and uses” (KABUSHIK KAISHA HAYASHIBARA SEIBUTS KAGAKU KENKYUJO, priority 1998, published 2001).

Common to all, as to assay type: physicochemical
Data set [1] in a line: Crystallinity by powdery X-ray diffraction analysis (Ruland method). The note with it: pulverized specimen, three specimens each, c axis about 10 mm, tetradodecahedral crystal. As to the method:
The crystallinity was determined by pulverizing a specimen and applying the Ruland method in Acta Crystallographica, Vol. 14, p. […] As a control, commercially available crystal sugar with a size equivalent to those of the specimens was examined similarly as above.

Data set [2] is described as follows: Intrusion disruptive strength by rheometer (needle about 3 mm in diameter). The note with it: stage elevated at 6 cm/min, three specimens each, strength when needle ruptures the crystal. As to the method:
As a representative polyhedral crystalline trehalose dihydrate having the c axis of about 10 mm, obtained by the methods in the later described Examples A-1 and A-2, three specimens with a tetradodecahedral crystalline structure were used and examined for the crystallinity by powdery X-ray diffraction analysis and the intrusion disruptive strength by rheometer. The crystallinity was determined by pulverizing a specimen and applying the Ruland method in Acta Crystallographica, Vol. 14, p. 1,180 (1961) using “GEIGERFLEX RAD-IIB”, an X-ray diffraction analyzer using Cuka ray commercialized by Rigaku Corporation, Tokyo, Japan, based on the powdery X-ray diffraction intensity. Using “FUDOH RHEO METER NRM-2010J-CW”, a rheometer commercialized by Rheotech Co., Ltd., Tokyo, Japan; and a needle, about 3 mm in diameter, as an adaptor, the intrusion disruptive strength was determined by placing a polyhedral crystal on a specimen stage, elevating the stage to the direction of the needle at a rate of 6 cm/min, and measuring the strength (kg) when the needle intrudes into and ruptures the polyhedral crystal. As a control, commercially available crystal sugar with a size equivalent to those of the specimens was examined similarly as above.

The nature of data set [3]: Hygroscopicity / solidification of the crystal products. The note with it: dried crystal product; dihydrate.

Several values for one entry are separate records, joined by “and”; a condition that tells them apart may be missing. Identical values can stand only once.

Take `O.O.OC[C@H]1O[C@H](O[C@H]2O[C@H](CO)[C@@H](O)[C@H](O)[C@H]2O)[C@H](O)[C@@H](O)[C@@H]1O` [Example A-2, crystalline trehalose dihydrate]: the Crystallinity in data set [1] (dihydrate) is 84% and 83%. For the same compound, in data set [2] (dihydrate), the Intrusion disruptive strength is 3.8 kg and 3.5 kg. The Hygroscopicity and solidification entry in data set [3] is “insubstantial hygroscopicity and solidification”.

Turning to `O.O.OC[C@H]1O[C@H](O[C@H]2O[C@H](CO)[C@@H](O)[C@H](O)[C@H]2O)[C@H](O)[C@@H](O)[C@@H]1O` [Example A-1, crystalline trehalose dihydrate], in data set [1] (dihydrate), the Crystallinity was 84% and 83%. The Intrusion disruptive strength in data set [2] (dihydrate) was 4.3 kg and 4.1 kg and 4.0 kg. Besides, in data set [3], the Hygroscopicity and solidification entry is recorded as “do not substantially absorb moisture to be solidified”.

Take `OC[C@H]1O[C@@](CO)(O[C@H]2O[C@H](CO)[C@@H](O)[C@H](O)[C@H]2O)[C@@H](O)[C@@H]1O` [Sugar crystal, reference compound]: in data set [1], the Crystallinity is 84% and 85%. For the same compound, the Intrusion disruptive strength in data set [2] was 9.9 kg and 10.0 kg.
